Laboratory results as given in patent publication US6844343B1, “N-substituted 4-aminopteridines, synthesis and use thereof as pharmaceutical agent” (Vasopharm Biotech GmbH, priority 1999, dated 2005).

How the values were obtained:
[1] = test system: purified NO synthase from pig cerebellum or from pig liver; assay: Activity assay of purified NOS (3H-L-arginine to 3H-L-citrulline conversion); assay type: biochemical; conditions: incubated in the presence of 5 kU/ml catalase for 45 minutes
[2] = test system: purified NO synthase from pig cerebellum or from pig liver; assay: as above; assay type: biochemical; conditions: substance 100 μM, in the presence of 2 μM tetrahydrobiopterin, 15 min at 37° C.
Procedure: The inhibition of the activity of purified nitric oxide synthase (NOS) by compounds of the general formula I can be determined as follows.
(§1) In this activity assay the L-citrulline which is a coproduct of the formation of NO by purified NOS is quantitatively measured. ^3H-radiolabeled L-arginine is employed as substrate of the enzyme reaction and is converted into ^3H-L-citrulline and NO. After completion of the enzyme incubation, generated L-citrulline is removed from unused L-arginine by ion exchange chromatography from the reaction mixture; the ^3H activity measured by liquid scintillation then is corresponds to the amount of L-citrulline, which is a direct measure of the activity of NOS.
The basic medium for carrying out the enzyme reaction is TE buffer (triethanolamine, EDTA, pH 7.0).
The final volume of each incubation is 100 μl. The reaction mixture is obtained by mixing the following 6 components on ice: • 1. “REA-Mix” (pH 7.0) which contains triethanolamine, calcium chloride, magnesium chloride, EDTA, L-arginine, calmodulin and flavin adenine dinucleotide (FAD); • 2. freshly prepared stock solution of β-nicotinamide adenine dinucleotide phosphate, reduced form (NADPH); • 3. (6R)-5,6,7,8-tetrahydro-L-biopterin dihydro-chloride stock solution (BH4) or —for experiments without BH4-instead TE buffer; • 4. purified NO synthase from pig cerebellum or from pig liver; • 5.
(§2) After mixing of the components on ice, the reaction mixture was immediately incubated in a water bath at 37° C. for 15 minutes. […] After this incubation time, the reaction was stopped by addition of 900 μl of ice-cold “stop buffer” (20 mM sodium acetate, 2 mM EDTA, pH 5.5), and the mixture (total volume now 1.0 ml) was placed on ice. To remove the unreacted ^3H-L-arginine, the mixture was loaded onto an ion exchange column with 0.8 ml of Dowex AG 50 WX-8 (100-200 mesh) which has previously been washed and equilibrated with 2 ml of stop buffer. After loading of the sample, the column was eluted twice with 1 ml of water each time. The flow-through of the sample and the eluate were collected in scintillation vessels and […] (total volume 3 ml). 9 ml of scintillator solution were added to the 3 ml of aqueous measurement solution, and the homogeneous mixture was measured in a Tricarb 2500 TR (Packard) liquid scintillation counter for 1 minute for each sample. […] Each substance was tested for an antagonistic effect in a concentration of 100 μM in the presence of 2 μM tetrahydrobiopterin, and for an agonistic effect on NOS in the absence of tetrahydrobiopterin.
All incubations were carried out on triplicates. Each experiment was repeated three times with different enzyme preparations.

NOS-II = NOS-II (Homo sapiens, UniProt P35228); assay: Inhibition of human NOS isoforms: NOS-II; assay type: biochemical
Procedure: (§3) After mixing of the components on ice, the reaction mixture was immediately incubated in a water bath at 37° C. for 15 minutes. […] After this incubation time, the reaction was stopped by addition of 900 μl of ice-cold “stop buffer” (20 mM sodium acetate, 2 mM EDTA, pH 5.5), and the mixture (total volume now 1.0 ml) was placed on ice. To remove the unreacted ^3H-L-arginine, the mixture was loaded onto an ion exchange column with 0.8 ml of Dowex AG 50 WX-8 (100-200 mesh) which has previously been washed and equilibrated with 2 ml of stop buffer. After loading of the sample, the column was eluted twice with 1 ml of water each time. The flow-through of the sample and the eluate were collected in scintillation vessels and […] (total volume 3 ml). 9 ml of scintillator solution were added to the 3 ml of aqueous measurement solution, and the homogeneous mixture was measured in a Tricarb 2500 TR (Packard) liquid scintillation counter for 1 minute for each sample. […] In addition, the relative selectivities of the antipterin inhibitors for the three known human NOS isoforms were measured. So doing, the IC50 values for NOS-II/NOS-I and NOS-III/NOS-I were formed (compare Table 2).

NOS-III = NOS-III (Homo sapiens, UniProt P29474); assay: Inhibition of human NOS isoforms: NOS-III; assay type: biochemical
Procedure: as §3

NOS-I = NOS-I (Homo sapiens, UniProt P29475); assay: Inhibition of human NOS isoforms: NOS-I; assay type: biochemical
Procedure: as §1, §2
In addition, the relative selectivities of the antipterin inhibitors for the three known human NOS isoforms were measured. So doing, the IC50 values for NOS-II/NOS-I and NOS-III/NOS-I were formed (compare Table 2).

[3] = test system: intact rat alveolar macrophages; conditions: cited from earlier work

Compound	IC50 [1] [µM]	Remaining activity (% of Vmax) [2]	Activity (% of control) (NOS-II; human NOS-II)	Activity (% of control) (NOS-III; human NOS-III)	Activity (% of control) (NOS-I)	other results
2-amino-4-(dibenzylamino)-6-(3,4-dimethoxyphenyl)-pteridine hemihydrate [Example 22]	2	0 % of Vmax				
2-amino-4-(diethylamino)-6-(4-chlorophenyl)-5,6,7,8-tetrahydropteridine dihydrochloride hemi-hydrate [Example 48]	8	0 % of Vmax	74 ± 4 % of control	27 ± 1 % of control	2 ± 0 % of control	IC50 (NOS-II; human NOS-II, enzyme inhibition not complete up to 300 μM, IC50 values extrapolated): 300 µM; Ratio NOS-II/I (NOS-II; ratio of IC50 values NOS-II/NOS-I): 7.2; IC50 (NOS-III; human NOS-III): 45.4 µM; Ratio NOS-III/I (NOS-III; ratio of IC50 values NOS-III/NOS-I): 1.1; IC50 (NOS-I): 41.5 µM
Nc1nc(N(Cc2ccccc2)Cc2ccccc2)c2nc(-c3ccc(Cl)cc3)cnc2n1.O.O [Example 20, 2-amino-4-(dibenzylamino)-6-(4-chlorophenyl)-pteridine dihydrate]	3.5	0 % of Vmax				
COc1ccc(-c2cnc3nc(N)nc(N(Cc4ccccc4)Cc4ccccc4)c3n2)cc1 [Example 21, 2-amino-4-(dibenzylamino)-6-(4-methoxyphenyl)-pteridine]		0 ± 0.05 % of Vmax	81 ± 6 % of control	68 ± 2 % of control	27 ± 1 % of control	
CCCN(CCC)c1nc(N)nc2c1NC(c1ccccc1)CN2.Cl.Cl.Cl.O (centres unmarked) [Example 46, 2-amino-4-(di-n-propylamino)-6-phenyl-5,6,7,8-tetrahydropteridine trihydrochloride hydrate]		8 ± 0.05 % of Vmax	68 ± 1 % of control	27 ± 0.2 % of control	1 ± 0.1 % of control	
CCCN(CCC)c1nc(N)nc2c1NC(c1ccc(OC)cc1)CN2.Cl.Cl.O.O (centres unmarked) [Example 47, 2-amino-4-(di-n-propylamino)-6-(4-methoxyphenyl)-5,6,7,8-tetrahydropteridine dihydrochloride dihydrate]		0 % of Vmax	78 ± 0.4 % of control	31 ± 3 % of control	0 ± 0.1 % of control	
Nc1nc(NCC2CCCCC2)c2c(n1)NCC(c1ccc(Cl)cc1)N2 (centres unmarked) [Example 49, 2-amino-4-(cyclohexylmethylamino)-6-(4-chloro-phenyl)-5,6,7,8-tetrahydropteridine dihydro-chloride hydrate]		0 % of Vmax	78 ± 6 % of control	18 ± 1 % of control	0 ± 0.1 % of control	
Nc1nc2ncc(C(=O)O)nc2c(=O)[nH]1 [Pterin-6-carboxylic acid]						inhibition of NO production [3]: no effect
C[C@H](O)C(=O)C1=Nc2c(nc(N)[nH]c2=O)NC1 [sepiapterin]						inhibition of NO production [3]: inhibition of NO production
